Results on four compounds are retold here after ChEMBL document CHEMBL1201862, “PubChem BioAssay data set” (2004).

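Following 48 hours of exposure in 96-well plates, responses at five concentrations were used to interpolate endpoints linearly. Here, GI50 denotes the concentration required for 50% inhibition of growth.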 The source made the active and inactive calls. Rule as the data show it: active = GI50 up to about 1.1 µM and inactive = higher.

Test systems include SNB-78; NCI/ADR-RES; DMS-273; HCC 2998; DLD-1; COLO 205; SNB-19; A498; KM-20L2; RPMI-8226; HL-60; DMS-114; MCF7; M19-MEL; HOP-92; MDA-MB-435; DU-145; Hs-578T.
Common to all, as to experiment: NCI tumour cell line growth inhibition, 48 h

In the case of `CC(=O)OCC1OC(n2cc(F)c(=O)[nH]c2=O)C(N)C(OC(C)=O)C1OC(C)=O` (stereo unspecified), the GI50 in the assay on SNB-78, with NCI/ADR-RES, with DMS-273, in the assay with HCC 2998, with DLD-1 and in the assay with COLO 205 was > 100 µM (inactive) throughout. For the same compound, the GI50 in the assay on SNB-19, in the assay on A498, in the assay on KM-20L2, in the assay with RPMI-8226, in the assay with HL-60 and in the assay on DMS-114 was > 100 µM (inactive) each time. The GI50 in the assay with MCF7, in the assay on M19-MEL and in the assay with HOP-92 was > 100 µM (inactive) in each case.
Turning to `Cc1[nH]c(=O)[nH]c(=O)c1/C=C/C(=O)NC(CO)C[S+]([O-])C[S+](C)[O-]` (stereo unspecified), the GI50 with SNB-78 is 11.7 µM (inactive); in the assay on NCI/ADR-RES it was 24.8 µM (inactive); in the assay with DMS-273 it was 21 µM (inactive); with HCC 2998, 9.62 µM (inactive); with DLD-1, 20.4 µM (inactive); in the assay with COLO 205 it was 30 µM (inactive). Further, the GI50 in the assay on SNB-19 is 13.2 µM (inactive); with A498, 21.8 µM (inactive); in the assay with KM-20L2 it was 36.9 µM (inactive); in the assay with RPMI-8226, 34.8 µM (inactive); in the assay on HL-60, 16.7 µM (inactive); in the assay on DMS-114, 11.1 µM (inactive). Besides, the GI50 with MCF7 is 20.9 µM (inactive); in the assay with M19-MEL, 15 µM (inactive); with HOP-92 it was 9.73 µM (inactive).
On to `O=C1CSc2sc(=S)sc2S1`, for which the GI50 with SNB-78 is > 63.7 µM (inactive); in the assay on NCI/ADR-RES, > 66.8 µM (inactive); in the assay on DMS-273, 95.9 µM (inactive); with HCC 2998, > 80.2 µM (inactive); in the assay on DLD-1, > 100 µM (inactive); with COLO 205 it was > 100 µM (inactive). For the same compound, the GI50 in the assay on SNB-19 was > 100 µM (inactive); in the assay with A498 it was 31.3 µM (inactive); in the assay with KM-20L2, > 100 µM (inactive); in the assay with RPMI-8226, 78.9 µM (inactive); in the assay on HL-60 it was > 61.5 µM (inactive); with DMS-114, > 100 µM (inactive). Moreover, the GI50 in the assay with MCF7, in the assay on M19-MEL and in the assay with HOP-92 was > 100 µM (inactive) in each case.
Consider `C/C=C1\NC(=O)[C@H]2CSSCCC=C[C@H](CC(=O)N[C@H](C(C)C)C(=O)N2)OC(=O)[C@H](C(C)C)NC1=O`, for which the GI50 in the assay with SNB-78 was 0.0446 µM (active); with NCI/ADR-RES, 0.0619 µM (active); with MDA-MB-435, 10 pM (active); with DU-145 it was 0.0455 nM (active); in the assay with Hs-578T, 0.0361 nM (active); with DMS-273, 0.00673 µM (active). Besides, the GI50 with HCC 2998 is < 0.01 µM (active); with DLD-1 it was 0.0217 µM (active); with SNB-19, 0.000116 µM (active); in the assay on A498, 0.00015 µM (active); in the assay on KM-20L2 it was 0.00288 µM (active); with RPMI-8226, 0.000147 µM (active). The GI50 in the assay on DMS-114 was 0.00291 µM (active); in the assay on MCF7, 2.22e-05 µM (active); in the assay on M19-MEL, 0.00252 µM (active); with HOP-92 it was 0.000366 µM (active).
